Test results taken from PubChem BioAssay AID248 (DTP/NCI, 2004).
Where “and” joins values, the source holds several entries; their conditions need not be identical. Identical values can stand only once. Inconclusive results and toxic doses are left out. No stated cut-off is given here; in the data, active means T/C of 150% or more; inactive means T/C below 125%.

Tested on: L1210 leukemia ip in BDF1 mice, survival T/C
Test: NCI In Vivo Anticancer Drug Screen. Data for tumor model L1210 Leukemia (intraperitoneal) in B6D2F1 (BDF1) mice
Details: higher = longer survival
Method in brief: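 Ratio derived from survival: compound-dosed mice over vehicle-dosed mice, all bearing a transplantable tumor.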

[1] = endpoint: mean survival time, dose: 100.0 mg/kg/injection, schedule: Q01DX009 (ip), vehicle: Klucel (hydroxypropylcellulose) (HPC)
[2] = endpoint: mean survival time, dose: 200.0 mg/kg/injection, schedule: Q01DX009 (ip), vehicle: Klucel (hydroxypropylcellulose) (HPC)
[3] = endpoint: mean survival time, dose: 400.0 mg/kg/injection, schedule: Q01DX009 (ip), vehicle: Klucel (hydroxypropylcellulose) (HPC)

Measured: T/C

CN(N=O)C(N)=O
active: endpoint: mean survival time, dose: 2.5 mg/kg/injection, schedule: Q01DX Z (sc), vehicle: steriod suspending solution 156 % of control | endpoint: mean survival time, dose: 5.0 mg/kg/injection, schedule: Q01DX Z (sc), vehicle: steriod suspending solution 160 % of control | endpoint: mean survival time, dose: 8.0 mg/kg/injection, schedule: Q01DX Z (ip), vehicle: saline 162 % of control | endpoint: mean survival time, dose: 10.0 mg/kg/injection, schedule: Q01DX Z (sc), vehicle: steriod suspending solution 156 % of control | endpoint: mean survival time, dose: 12.0 mg/kg/injection, schedule: Q01DX Z (ip), vehicle: saline 184 % of control | endpoint: mean survival time, dose: 12.5 mg/kg/injection, schedule: Q01DX Z (oral), vehicle: steriod suspending solution 157 % of control | endpoint: mean survival time, dose: 13.0 mg/kg/injection, schedule: Q02DX010 (ip), vehicle: saline 154 % of control | endpoint: mean survival time, dose: 18.0 mg/kg/injection, schedule: Q01DX Z (ip), vehicle: carboxymethylcellulose (CMC) 177 % of control | endpoint: mean survival time, dose: 18.0 mg/kg/injection, schedule: Q01DX Z (ip), vehicle: saline 187 % of control | endpoint: mean survival time, dose: 18.0 mg/kg/injection, schedule: Q01DX Z (sc), vehicle: other 188 % of control | endpoint: mean survival time, dose: 20.0 mg/kg/injection, schedule: Q01DX009 (ip), vehicle: saline 158 % of control and 174 % of control | endpoint: mean survival time, dose: 20.0 mg/kg/injection, schedule: Q02DX010 (ip), vehicle: other 159 % of control | endpoint: mean survival time, dose: 20.0 mg/kg/injection, schedule: Q02DX010 (ip), vehicle: saline 160 % of control and 166 % of control | endpoint: mean survival time, dose: 22.5 mg/kg/injection, schedule: Q02DX010 (ip), vehicle: saline 152 % of control | endpoint: mean survival time, dose: 24.0 mg/kg/injection, schedule: Q02DX010 (ip), vehicle: saline 167 % of control | endpoint: mean survival time, dose: 30.0 mg/kg/injection, schedule: Q02DX010 (ip), vehicle: other 208 % of control | endpoint: mean survival time, dose: 30.0 mg/kg/injection, schedule: Q02DX010 (ip), vehicle: saline 154 % of control and 177 % of control | endpoint: mean survival time, dose: 36.0 mg/kg/injection, schedule: Q02DX010 (ip), vehicle: saline 211 % of control | endpoint: mean survival time, dose: 72.0 mg/kg/injection, schedule: Q01DX001 (ip), vehicle: saline 188 % of control | endpoint: median survival time, dose: 10.0 mg/kg/injection, schedule: Q01DX009 (ip), vehicle: saline 155 % of control | endpoint: median survival time, dose: 12.0 mg/kg/injection, schedule: Q01DX009 (ip), vehicle: saline 172 % of control | endpoint: median survival time, dose: 12.5 mg/kg/injection, schedule: Q01DX017 (ip), vehicle: saline 183 % of control and 194 % of control | endpoint: median survival time, dose: 20.0 mg/kg/injection, schedule: Q01DX009 (ip), vehicle: saline 233 % of control and 242 % of control | endpoint: median survival time, dose: 24.0 mg/kg/injection, schedule: Q01DX009 (ip), vehicle: saline 190 % of control
inactive: endpoint: mean survival time, dose: 0.35 mg/kg/injection, schedule: Q01DX Z (sc), vehicle: steriod suspending solution 103 % of control | endpoint: mean survival time, dose: 0.55 mg/kg/injection, schedule: Q01DX Z (sc), vehicle: steriod suspending solution 97 % of control | endpoint: mean survival time, dose: 0.83 mg/kg/injection, schedule: Q01DX Z (sc), vehicle: steriod suspending solution 100 % of control | endpoint: mean survival time, dose: 0.92 mg/kg/injection, schedule: Q01DX Z (oral), vehicle: steriod suspending solution 98 % of control | endpoint: mean survival time, dose: 1.25 mg/kg/injection, schedule: Q01DX Z (sc), vehicle: steriod suspending solution 103 % of control | endpoint: mean survival time, dose: 1.38 mg/kg/injection, schedule: Q01DX Z (oral), vehicle: steriod suspending solution 106 % of control | endpoint: mean survival time, dose: 2.08 mg/kg/injection, schedule: Q01DX Z (oral), vehicle: steriod suspending solution 107 % of control | endpoint: mean survival time, dose: 2.25 mg/kg/injection, schedule: Q01DX Z (ip), vehicle: carboxymethylcellulose (CMC) 112 % of control | endpoint: mean survival time, dose: 3.12 mg/kg/injection, schedule: Q01DX Z (oral), vehicle: steriod suspending solution 114 % of control | endpoint: mean survival time, dose: 3.6 mg/kg/injection, schedule: Q01DX Z (ip), vehicle: carboxymethylcellulose (CMC) 109 % of control | endpoint: mean survival time, dose: 4.5 mg/kg/injection, schedule: Q01DX Z (ip), vehicle: carboxymethylcellulose (CMC) 109 % of control and 120 % of control | endpoint: mean survival time, dose: 5.0 mg/kg/injection, schedule: Q01DX009 (ip), vehicle: saline 118 % of control and 123 % of control | endpoint: mean survival time, dose: 5.7 mg/kg/injection, schedule: Q02DX010 (ip), vehicle: carboxymethylcellulose (CMC) 121 % of control | endpoint: mean survival time, dose: 6.0 mg/kg/injection, schedule: Q01DX Z (ip), vehicle: carboxymethylcellulose (CMC) 119 % of control | endpoint: mean survival time, dose: 6.2 mg/kg/injection, schedule: Q01DX Z (sc), vehicle: saline 106 % of control and 113 % of control | endpoint: mean survival time, dose: 6.25 mg/kg/injection, schedule: Q01DX Z (oral), vehicle: steriod suspending solution 101 % of control | endpoint: mean survival time, dose: 6.8 mg/kg/injection, schedule: Q02DX010 (ip), vehicle: saline 122 % of control | endpoint: mean survival time, dose: 8.0 mg/kg/injection, schedule: Q01DX Z (sc), vehicle: other 122 % of control | endpoint: mean survival time, dose: 8.0 mg/kg/injection, schedule: Q01DX Z (sc), vehicle: saline 115 % of control | endpoint: mean survival time, dose: 9.0 mg/kg/injection, schedule: Q01DX Z (sc), vehicle: saline 103 % of control | endpoint: mean survival time, dose: 9.0 mg/kg/injection, schedule: Q02DX010 (ip), vehicle: carboxymethylcellulose (CMC) 122 % of control | endpoint: mean survival time, dose: 18.0 mg/kg/injection, schedule: Q01DX001 (ip), vehicle: saline 124 % of control | endpoint: mean survival time, dose: 24.8 mg/kg/injection, schedule: Q01DX Z (oral), vehicle: saline 112 % of control | endpoint: mean survival time, dose: 27.0 mg/kg/injection, schedule: Q01DX Z (ip), vehicle: saline 115 % of control | endpoint: mean survival time, dose: 36.0 mg/kg/injection, schedule: Q01DX Z (ip), vehicle: carboxymethylcellulose (CMC) 122 % of control | endpoint: mean survival time, dose: 40.0 mg/kg/injection, schedule: Q01DX009 (ip), vehicle: saline 118 % of control and 88 % of control | endpoint: mean survival time, dose: 40.0 mg/kg/injection, schedule: Q01DX Z (ip), vehicle: saline 103 % of control | endpoint: mean survival time, dose: 45.0 mg/kg/injection, schedule: Q01DX Z (ip), vehicle: carboxymethylcellulose (CMC) 94 % of control | endpoint: mean survival time, dose: 45.0 mg/kg/injection, schedule: Q02DX010 (ip), vehicle: saline 108 % of control | endpoint: mean survival time, dose: 56.0 mg/kg/injection, schedule: Q01DX Z (oral), vehicle: saline 113 % of control and 114 % of control | endpoint: mean survival time, dose: 67.0 mg/kg/injection, schedule: Q02DX010 (ip), vehicle: other 101 % of control | endpoint: mean survival time, dose: 67.0 mg/kg/injection, schedule: Q02DX010 (ip), vehicle: saline 74 % of control | endpoint: mean survival time, dose: 80.0 mg/kg/injection, schedule: Q01DX Z (sc), vehicle: steriod suspending solution 101 % of control | endpoint: mean survival time, dose: 84.0 mg/kg/injection, schedule: Q01DX Z (oral), vehicle: saline 101 % of control | endpoint: mean survival time, dose: 160.0 mg/kg/injection, schedule: Q01DX Z (sc), vehicle: steriod suspending solution 88 % of control | endpoint: median survival time, dose: 0.75 mg/kg/injection, schedule: Q01DX009 (ip), vehicle: saline 95 % of control | endpoint: median survival time, dose: 1.5 mg/kg/injection, schedule: Q01DX009 (ip), vehicle: saline 100 % of control and 110 % of control | endpoint: median survival time, dose: 3.0 mg/kg/injection, schedule: Q01DX009 (ip), vehicle: saline 100 % of control and 115 % of control | endpoint: median survival time, dose: 5.0 mg/kg/injection, schedule: Q01DX009 (ip), vehicle: saline 121 % of control | endpoint: median survival time, dose: 6.3 mg/kg/injection, schedule: Q01DX017 (ip), vehicle: saline 122 % of control | endpoint: median survival time, dose: 40.0 mg/kg/injection, schedule: Q01DX009 (ip), vehicle: saline 100 % of control and 121 % of control

CCOC(=O)c1ccc(NC(=O)Nc2cc(Cl)c(OC)cc2OC)cc1
inactive: [1] 98 % of control | [2] 95 % of control | [3] 105 % of control

COC1=C(NC2CCCCC2)C(=O)C(OC)=C(NC2CCCCC2)C1=O
inactive: endpoint: mean survival time, dose: 50.0 mg/kg/injection, schedule: Q01DX001 (ip), vehicle: carboxymethylcellulose (CMC) 103 % of control | endpoint: mean survival time, dose: 100.0 mg/kg/injection, schedule: Q01DX001 (ip), vehicle: carboxymethylcellulose (CMC) 101 % of control | [1] 86 % of control | endpoint: mean survival time, dose: 100.0 mg/kg/injection, schedule: Q04DX003 (ip), vehicle: Klucel (hydroxypropylcellulose) (HPC) 96 % of control | endpoint: mean survival time, dose: 200.0 mg/kg/injection, schedule: Q01DX001 (ip), vehicle: carboxymethylcellulose (CMC) 101 % of control | [2] 98 % of control | endpoint: mean survival time, dose: 200.0 mg/kg/injection, schedule: Q04DX003 (ip), vehicle: Klucel (hydroxypropylcellulose) (HPC) 94 % of control | endpoint: mean survival time, dose: 400.0 mg/kg/injection, schedule: Q01DX001 (ip), vehicle: carboxymethylcellulose (CMC) 103 % of control | [3] 91 % of control | endpoint: mean survival time, dose: 400.0 mg/kg/injection, schedule: Q04DX003 (ip), vehicle: Klucel (hydroxypropylcellulose) (HPC) 94 % of control

C[N+](C)(C)CCOC(=O)c1ccc(CCl)cc1
inactive: endpoint: mean survival time, dose: 25.0 mg/kg/injection, schedule: Q04DX002 (ip), vehicle: saline with Tween-80 113 % of control | endpoint: mean survival time, dose: 50.0 mg/kg/injection, schedule: Q04DX002 (ip), vehicle: saline with Tween-80 102 % of control | endpoint: mean survival time, dose: 100.0 mg/kg/injection, schedule: Q04DX002 (ip), vehicle: other 98 % of control | endpoint: mean survival time, dose: 100.0 mg/kg/injection, schedule: Q04DX002 (ip), vehicle: saline with Tween-80 110 % of control
